Our source for the Km values is paper PMC12370193, “An L-fucose-responsive transcription factor cross-regulates the expression of a diverse array of carbohydrate-active enzymes in Trichoderma reesei” (PLOS Genetics, 2025).

For this test, the target named is T1, FDH1 (Trichoderma reesei, UniProt G0RGU7).
T1 construct: gene TRIREDRAFT_60517; full-length re-annotated 302-aa protein (database gene model may differ; S1 Data); codon-optimized; pET-32a(+), E. coli BL21(DE3); N-terminal His6 tag
The test is described as follows: NADH formation at […] nm, initial rates, Hill equation fit. The settings on record: NAD+ co-substrate (0.5 mM in standard assay), 50 mM Tris-HCl pH 9.0, 30 °C. Format: biochemical.

T1 sequence (G0RGU7 entry or part of it): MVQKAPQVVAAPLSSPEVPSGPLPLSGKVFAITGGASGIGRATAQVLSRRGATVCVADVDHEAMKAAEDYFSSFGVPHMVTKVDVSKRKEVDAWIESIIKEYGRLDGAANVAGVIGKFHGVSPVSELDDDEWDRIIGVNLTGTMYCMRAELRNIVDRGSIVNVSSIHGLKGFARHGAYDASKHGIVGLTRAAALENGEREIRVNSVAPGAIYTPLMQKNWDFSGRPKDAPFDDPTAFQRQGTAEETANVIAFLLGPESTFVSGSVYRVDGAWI

As usually defined, the Km is the concentration of substrate that gives half-maximal velocity. As for `C[C@@H]1OC(O)[C@@H](O)[C@H](O)[C@@H]1O` (stereo partly drawn) [L-fucose, 6-deoxy-L-galactose], the Km was 546 µM.
